# In PubChem BioAssay AID1963421 (Molecular Pharmacology Branch, DTP, NCI, 2024):
# Several values for one entry are separate records, joined by “and”; a condition that tells them apart may be missing. Equal values may be shown once.
# Tested on: 519858-162-T-J1-PDC complex spheroid growth, % test/control
# Assay: Anticancer human tumor 519858-162-T-J1-PDC patient-derived colon adenocarcinoma cell line growth inhibition [Asc]
# Conditions: for viability, T/C: stronger effect = lower value
# Outline: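 Complex solid-tumor spheroids incorporating human endothelial and mesenchymal stem cells received single agents or combinations over half-log dilution ranges anchored to clinical Cmax.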
# 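Also: seven day drug exposure begun three days after spheroid seeding.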
# 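For viability, T/C in this document: 100% = DMSO vehicle wells and lower values mean less viable spheroid.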
smiles,measurement,setting,value
NC(=O)C(=Cn1cnc(-c2cc(C(F)(F)F)cc(C(F)(F)F)c2)n1)c1cncnc1 + CNC(C)C(=O)NC1CN(S(=O)(=O)c2cccc(S(=O)(=O)N3CCC4CCC(C(=O)NC(c5ccccc5)c5ccccc5)N4C(=O)C(NC(=O)C(C)NC)C3)c2)CCC2CCC(C(=O)NC(c3ccccc3)c3ccccc3)N2C1=O,IC50,"curve of first compound, second compound 0.00316 µM",> 300 nM
same,IC50,"curve of first compound, second compound 0.01 µM",> 300 nM
same,IC50,"curve of first compound, second compound 0.0316 µM",> 300 nM
same,IC50,"curve of first compound, second compound 0.1 µM",> 300 nM
same,IC50,"curve of first compound, second compound 0.316 µM",> 300 nM
same,IC50,"curve of first compound, second compound 1 µM",> 300 nM
same,"viability, T/C","second compound 0.00316 µM, first compound 0.000949 µM",139%
same,"viability, T/C","second compound 0.00316 µM, first compound 0.003 µM",116%
same,"viability, T/C","second compound 0.00316 µM, first compound 0.00949 µM",102%
same,"viability, T/C","second compound 0.00316 µM, first compound 0.03 µM",83.8%
same,"viability, T/C","second compound 0.00316 µM, first compound 0.0949 µM",71.7%
same,"viability, T/C","second compound 0.00316 µM, first compound 0.3 µM",71.2%
same,"viability, T/C","second compound 0.01 µM, first compound 0.000949 µM",91.2%
same,"viability, T/C","second compound 0.01 µM, first compound 0.003 µM",80%
same,"viability, T/C","second compound 0.01 µM, first compound 0.00949 µM",67.5%
same,"viability, T/C","second compound 0.01 µM, first compound 0.03 µM",70.7%
same,"viability, T/C","second compound 0.01 µM, first compound 0.0949 µM",67%
same,"viability, T/C","second compound 0.01 µM, first compound 0.3 µM",55.6%
same,"viability, T/C","second compound 0.0316 µM, first compound 0.000949 µM",87%
same,"viability, T/C","second compound 0.0316 µM, first compound 0.003 µM",85.7%
same,"viability, T/C","second compound 0.0316 µM, first compound 0.00949 µM",80.1%
same,"viability, T/C","second compound 0.0316 µM, first compound 0.03 µM",54.8%
same,"viability, T/C","second compound 0.0316 µM, first compound 0.0949 µM",65%
same,"viability, T/C","second compound 0.0316 µM, first compound 0.3 µM",63.5%
same,"viability, T/C","second compound 0.1 µM, first compound 0.000949 µM",99.2%
same,"viability, T/C","second compound 0.1 µM, first compound 0.003 µM",96.3%
same,"viability, T/C","second compound 0.1 µM, first compound 0.00949 µM",98.4%
same,"viability, T/C","second compound 0.1 µM, first compound 0.03 µM",67.8%
same,"viability, T/C","second compound 0.1 µM, first compound 0.0949 µM",50.1%
same,"viability, T/C","second compound 0.1 µM, first compound 0.3 µM",71.2%
same,"viability, T/C","second compound 0.316 µM, first compound 0.000949 µM",86.3%
same,"viability, T/C","second compound 0.316 µM, first compound 0.003 µM",105%
same,"viability, T/C","second compound 0.316 µM, first compound 0.00949 µM",67.1%
same,"viability, T/C","second compound 0.316 µM, first compound 0.03 µM",65.7%
same,"viability, T/C","second compound 0.316 µM, first compound 0.0949 µM",69.5%
same,"viability, T/C","second compound 0.316 µM, first compound 0.3 µM",67.6%
same,"viability, T/C","second compound 1 µM, first compound 0.000949 µM",88.4%
same,"viability, T/C","second compound 1 µM, first compound 0.003 µM",71.4%
same,"viability, T/C","second compound 1 µM, first compound 0.00949 µM",76.5%
same,"viability, T/C","second compound 1 µM, first compound 0.03 µM",51.4%
same,"viability, T/C","second compound 1 µM, first compound 0.0949 µM",72.3%
same,"viability, T/C","second compound 1 µM, first compound 0.3 µM",109%
Cn1ncnc1[C@H]1c2n[nH]c(=O)c3cc(F)cc(c23)N[C@@H]1c1ccc(F)cc1,"viability, T/C",compound 0.000316 µM,87.9% and 91% and 92%
same,"viability, T/C",compound 0.001 µM,97.2% and 98.2% and 79.8%
same,"viability, T/C",compound 0.00316 µM,99.3% and 92.3% and 101%
same,"viability, T/C",compound 0.01 µM,82.6% and 96.8% and 94.9%
same,"viability, T/C",compound 0.0316 µM,90.9% and 81.5% and 68.7%
same,"viability, T/C",compound 0.1 µM,96.8% and 78.6% and 84.5%
same,IC50,curve of compound,> 100 nM
Cc1c(S(C)(=O)=O)c(-c2cc(F)cc(N3CCN(c4ccc(NS(=O)(=O)c5ccc(NC(CCN6CCC(C(=O)OCCCP(=O)(O)O)CC6)CSc6ccccc6)c(S(=O)(=O)C(F)(F)F)c5)cc4)CC3)c2)c(-c2ccc(Cl)cc2)n1C(C)C (centres undefined),"viability, T/C",compound 0.0316 µM,89.8% [middle of 7 runs]
same,"viability, T/C",compound 1 µM,95.1% [middle of 7 runs]
same,IC50,"compound alone, run of 11/07/2022",> 10000 nM
COc1c(OCCCN2CCOCC2)ccc2c3n(c(=NC(=O)c4cnc(N)nc4)nc12)CCN3 + CCN1C(C(=O)NC23CCC(C(=O)O)(CC2)CC3)C(c2cccc(Cl)c2F)C2(C(=O)Nc3cc(Cl)ccc32)C12CCCCC2,IC50,"curve of first compound, second compound 0.00949 µM",> 1000 nM
same,IC50,"curve of first compound, second compound 0.03 µM",> 1000 nM
same,IC50,"curve of first compound, second compound 0.0949 µM",> 1000 nM
same,IC50,"curve of first compound, second compound 0.3 µM",749 nM
same,IC50,"curve of first compound, second compound 0.949 µM",301 nM
same,IC50,"curve of first compound, second compound 3 µM",> 1000 nM
same,"viability, T/C","second compound 0.00949 µM, first compound 0.00316 µM",75.5%
same,"viability, T/C","second compound 0.00949 µM, first compound 0.01 µM",130%
same,"viability, T/C","second compound 0.00949 µM, first compound 0.0316 µM",88.6%
same,"viability, T/C","second compound 0.00949 µM, first compound 0.1 µM",80.3%
same,"viability, T/C","second compound 0.00949 µM, first compound 0.316 µM",70.8%
same,"viability, T/C","second compound 0.00949 µM, first compound 1 µM",53%
same,"viability, T/C","second compound 0.03 µM, first compound 0.00316 µM",95.3%
same,"viability, T/C","second compound 0.03 µM, first compound 0.01 µM",93.1%
same,"viability, T/C","second compound 0.03 µM, first compound 0.0316 µM",89.3%
same,"viability, T/C","second compound 0.03 µM, first compound 0.1 µM",80.3%
same,"viability, T/C","second compound 0.03 µM, first compound 0.316 µM",81.6%
same,"viability, T/C","second compound 0.03 µM, first compound 1 µM",57.3%
same,"viability, T/C","second compound 0.0949 µM, first compound 0.00316 µM",86.8%
same,"viability, T/C","second compound 0.0949 µM, first compound 0.01 µM",80.3%
same,"viability, T/C","second compound 0.0949 µM, first compound 0.0316 µM",98.1%
same,"viability, T/C","second compound 0.0949 µM, first compound 0.1 µM",77.2%
same,"viability, T/C","second compound 0.0949 µM, first compound 0.316 µM",64.2%
same,"viability, T/C","second compound 0.0949 µM, first compound 1 µM",55.9%
same,"viability, T/C","second compound 0.3 µM, first compound 0.00316 µM",89.8%
same,"viability, T/C","second compound 0.3 µM, first compound 0.01 µM",73.2%
same,"viability, T/C","second compound 0.3 µM, first compound 0.0316 µM",80.2%
same,"viability, T/C","second compound 0.3 µM, first compound 0.1 µM",84.3%
same,"viability, T/C","second compound 0.3 µM, first compound 0.316 µM",56.2%
same,"viability, T/C","second compound 0.3 µM, first compound 1 µM",47.9%
same,"viability, T/C","second compound 0.949 µM, first compound 0.00316 µM",69.6%
same,"viability, T/C","second compound 0.949 µM, first compound 0.01 µM",91.1%
same,"viability, T/C","second compound 0.949 µM, first compound 0.0316 µM",91%
same,"viability, T/C","second compound 0.949 µM, first compound 0.1 µM",47.5%
same,"viability, T/C","second compound 0.949 µM, first compound 0.316 µM",60.8%
same,"viability, T/C","second compound 0.949 µM, first compound 1 µM",32.1%
same,"viability, T/C","second compound 3 µM, first compound 0.00316 µM",78.4%
same,"viability, T/C","second compound 3 µM, first compound 0.01 µM",86%
same,"viability, T/C","second compound 3 µM, first compound 0.0316 µM",80.6%
same,"viability, T/C","second compound 3 µM, first compound 0.1 µM",57.6%
same,"viability, T/C","second compound 3 µM, first compound 0.316 µM",60.2%
same,"viability, T/C","second compound 3 µM, first compound 1 µM",50.4%
